Converted amounts (≈) assume the structure as drawn. Read-outs that look alike come from different tables or passages of the source. Marks after values point to notes of the source that are not given here.
What was measured:
[1] = tested on: E. coli CDC-AR-0346 (ESBL, colistin resistant); experiment: MIC broth microdilution, E. coli CDC-AR-0346; assay type: cell-based, Escherichia coli; details: MDR, overnight incubation; for MIC: Escherichia coli
Experimental: (§1) Antibacterial activity: The compounds were tested for the minimum inhibitory concentrations (MIC), which is the lowest concentration of a chemical required to inhibit visible microbial growth following overnight incubation. MIC values were determined using broth microdilution method according to the Clinical and Laboratory Standards Institute guidelines (CLSI, 2015, M07-A10). Mueller-Hinton broth was used as a culture medium in all the experiments. Exponentially growing bacterial cells were prepared in Mueller-Hinton broth at a concentration of approximately 5×10^5 CFU/mL. Two-fold serial dilutions of the test compound (8 concentrations ranged between 100-0.78 μg/mL) were tested. […] In each experiment, solvent (DMSO) was used as a negative control, un-treated control (composing of bacteria in Mueller-Hinton broth) was used as a growth control, blank (culture media alone) was used as sterility control. The 96-well microplate with the test compounds was incubated overnight at 37° C. Turbidity in wells indicated bacterial growth.
(§2) The compounds were tested on six MDR Gram-positive bacteria including three clinical isolates of methicillin-resistant Staphylococcus aureus (MRSA-1, MRSA-2 and MRSA-3) and three reference MRSA strains (ATCC33591, ATCC33592 and ATCC700699). They were also tested on three MDR Gram-negative bacteria including New Delhi metallo-beta-lactamase (NDM-1) positive, carbapenem-resistant E. coli (ATCC BAA2469), extended-spectrum beta-lactamase (ESBL) producing, colistin-resistant E. coli (CDC-AR-0346) and carbapenem-resistant Acinetobacter baumannii (ATCC BAA1605), in addition to two non-MDR bacteria from the same species, namely E. coli (ATCC 25922) Acinetobacter baumannii (ATCC 19606).

[2] = tested on: Acinetobacter baumannii ATCC 19606; experiment: MIC broth microdilution, A. baumannii ATCC 19606; assay type: cell-based; details: not MDR, overnight incubation; for MIC: Acinetobacter baumannii, ATCC19606
Experimental: as §1, §2

[3] = tested on: E. coli ATCC BAA2469 (NDM-1 carbapenem-resistant); experiment: MIC broth microdilution, E. coli ATCC BAA2469; assay type: cell-based, Escherichia coli; details: overnight incubation; for MIC E. coli ATCC BAA2469 (NDM-1 carbapenem-resistant): MDR; for MIC: Escherichia coli, ATCCBAA2469, MDR
Experimental: as §1, §2

[4] = tested on: Acinetobacter baumannii ATCC BAA1605 (carbapenem-resistant); experiment: MIC broth microdilution, A. baumannii ATCC BAA1605; assay type: cell-based; details: overnight incubation; for MIC Acinetobacter baumannii ATCC BAA1605 (carbapenem-resistant): MDR; for MIC: Acinetobacter baumannii, ATCCBAA1605, MDR
Experimental: as §1, §2

E. coli ATCC25922 = experiment: MIC broth microdilution, E. coli ATCC25922; assay type: cell-based, Escherichia coli; details: not MDR, overnight incubation; for MIC: Escherichia coli, ATCC25922
Experimental: as §1, §2

MRSA-ATCC33591 = experiment: MIC broth microdilution, MRSA ATCC33591; assay type: cell-based, Staphylococcus aureus; details: for MIC: Staphylococcus aureus, read-out: MIC MRSA-ATCC33591
Experimental: as §1, §2

MRSA-ATCC700699 (VISA) = experiment: MIC broth microdilution, MRSA ATCC700699 (VISA); assay type: cell-based, Staphylococcus aureus; details: for MIC: Staphylococcus aureus, read-out: MIC MRSA-ATCC700699 (VISA)
Experimental: as §1, §2

[5] = tested on: MRSA-1 (clinical isolate); experiment: MIC broth microdilution, MRSA-1; assay type: cell-based, Staphylococcus aureus; details: for MIC: Staphylococcus aureus, MRSA, read-out: MIC MRSA-1 (clinical isolate)
Experimental: as §1, §2

[6] = tested on: MRSA-3 (clinical isolate); experiment: MIC broth microdilution, MRSA-3; assay type: cell-based, Staphylococcus aureus; details: for MIC: Staphylococcus aureus, MRSA, read-out: MIC MRSA-3 (clinical isolate)
Experimental: as §1, §2

MRSA-ATCC33592 = experiment: MIC broth microdilution, MRSA ATCC33592; assay type: cell-based, Staphylococcus aureus; details: for MIC: Staphylococcus aureus, read-out: MIC MRSA-ATCC33592
Experimental: as §1, §2

[7] = tested on: MRSA-2 (clinical isolate); experiment: MIC broth microdilution, MRSA-2; assay type: cell-based, Staphylococcus aureus; details: for MIC: Staphylococcus aureus, MRSA, read-out: MIC MRSA-2 (clinical isolate)
Experimental: as §1, §2

[8] = overnight incubation, Mueller-Hinton broth
[9] = strain intermediately resistant to vancomycin, overnight incubation

## Colistin
[1]
  MIC E. coli CDC-AR-0346 (ESBL, colistin resistant): 6.25 µg/mL
[2]
  MIC Acinetobacter baumannii ATCC 19606: 1.25 µg/mL
[3]
  MIC E. coli ATCC BAA2469 (NDM-1 carbapenem-resistant): 1.25 µg/mL
[4]
  MIC Acinetobacter baumannii ATCC BAA1605 (carbapenem-resistant): 1.25 µg/mL
E. coli ATCC25922
  MIC E. coli ATCC25922: 0.2 µg/mL

## Gentamicin [reference compound]
MRSA-ATCC33591; [8]
  MIC MRSA-ATCC33591: 2.5 µg/mL
MRSA-ATCC700699 (VISA); [9]
  MIC MRSA-ATCC700699 (VISA): 500 µg/mL
[5]; [8]
  MIC MRSA-1 (clinical isolate): 50 µg/mL
[1]
  MIC E. coli CDC-AR-0346 (ESBL, colistin resistant): >1000 µg/mL
[6]; [8]
  MIC MRSA-3 (clinical isolate): 0.625 µg/mL
[2]
  MIC Acinetobacter baumannii ATCC 19606: 10 µg/mL
MRSA-ATCC33592; [8]
  MIC MRSA-ATCC33592: >500 µg/mL
[3]
  MIC E. coli ATCC BAA2469 (NDM-1 carbapenem-resistant): >1000 µg/mL
[4]
  MIC Acinetobacter baumannii ATCC BAA1605 (carbapenem-resistant): 125 µg/mL
E. coli ATCC25922
  MIC E. coli ATCC25922: 0.625 µg/mL
[7]; [8]
  MIC MRSA-2 (clinical isolate): 0.625 µg/mL

## CO/N=C(\C(=O)N[C@@H]1C(=O)N2C(C(=O)O)=C(CSc3nc(=O)c(=O)[nH]n3C)CS[C@H]12)c1csc(N)n1 [Ceftriaxone]
[1]
  MIC: > 1000 µg/mL
[2]
  MIC: 20 µg/mL (≈ 36.1 µM)
[3]
  MIC: 500 µg/mL (≈ 902 µM)
[4]
  MIC: ≥ 1000 µg/mL
  MIC Acinetobacter baumannii ATCC BAA1605 (carbapenem-resistant): >1000 µg/mL
E. coli ATCC25922
  MIC: 0.03 µg/mL (≈ 0.0541 µM)

## COC(=O)[C@H]1Cc2c3n(c4ccccc24)[C@@]2(C=C/C(=N\Nc4ccc(C(F)(F)F)cc4)CC2)CC[C@@H]3N1 [Compound 1n]
MRSA-ATCC33591; [8]
  MIC: 6.25 µg/mL (≈ 12.3 µM)
MRSA-ATCC700699 (VISA); [9]
  MIC: 6.25 µg/mL (≈ 12.3 µM)
[5]; [8]
  MIC: 3.12 µg/mL (≈ 6.14 µM)
[6]; [8]
  MIC: 3.12 µg/mL (≈ 6.14 µM)
MRSA-ATCC33592; [8]
  MIC: 6.25 µg/mL (≈ 12.3 µM)
[7]; [8]
  MIC: 3.12 µg/mL (≈ 6.14 µM)

## CN[C@H](CC(C)C)C(=O)N[C@H]1C(=O)N[C@@H](CC(N)=O)C(=O)N[C@H]2C(=O)N[C@H]3C(=O)N[C@H](C(=O)N[C@H](C(=O)O)c4cc(O)cc(O)c4-c4cc3ccc4O)[C@H](O)c3ccc(c(Cl)c3)Oc3cc2cc(c3O[C@@H]2O[C@H](CO)[C@@H](O)[C@H](O)[C@H]2O[C@H]2C[C@](C)(N)[C@H](O)[C@H](C)O2)Oc2ccc(cc2Cl)[C@H]1O [Vancomycin, reference compound]
MRSA-ATCC33591
  MIC: 1 µg/mL (≈ 0.69 µM)
MRSA-ATCC700699 (VISA)
  MIC: 8 µg/mL (≈ 5.52 µM)
MRSA-ATCC700699 (VISA); [9]
  MIC MRSA-ATCC700699 (VISA): 8 * μg/mL
[5]
  MIC: 1 µg/mL (≈ 0.69 µM)
[6]
  MIC: 1 µg/mL (≈ 0.69 µM)
MRSA-ATCC33592
  MIC: 1 µg/mL (≈ 0.69 µM)
[7]
  MIC: 1 µg/mL (≈ 0.69 µM)

## COC(=O)[C@@H]1Cc2c3n(c4ccccc24)[C@@]2(C=C/C(=N\Nc4ccc(C(F)(F)F)cc4)CC2)CC[C@@H]3N1 [Compound 1m]
MRSA-ATCC33591; [8]
  MIC: 6.25 µg/mL (≈ 12.3 µM)
MRSA-ATCC700699 (VISA); [9]
  MIC: 6.25 µg/mL (≈ 12.3 µM)
[5]; [8]
  MIC: 3.12 µg/mL (≈ 6.14 µM)
[6]; [8]
  MIC: 3.12 µg/mL (≈ 6.14 µM)
MRSA-ATCC33592; [8]
  MIC: 6.25 µg/mL (≈ 12.3 µM)
[7]; [8]
  MIC: 3.12 µg/mL (≈ 6.14 µM)

## C[C@@H](O)[C@H]1C(=O)N2C(C(=O)O)=C(S[C@@H]3CN[C@H](C(=O)N(C)C)C3)[C@H](C)[C@H]12 [Meropenem]
[1]
  MIC: < 0.2 µg/mL
[2]
  MIC: 0.6 µg/mL (≈ 1.56 µM)
[3]
  MIC: 25 µg/mL (≈ 65.2 µM)
[4]
  MIC: 12.5 µg/mL (≈ 32.6 µM)
E. coli ATCC25922
  MIC: < 0.02 µg/mL
